Test results from PubChem BioAssay (NCI).
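Growth conditions: 96-well plates. Treatment: test compound, 48 hours, 5 concentrations. Analysis: linear interpolation between bracketing concentrations; unreached endpoints set to highest concentration. At the GI50, growth is halved. TGI: concentration producing complete growth inhibition.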

How the values were obtained:
Assay in all cases: inhibition of tumour cell growth, NCI panel, 48 h
CCRF-CEM leukemia = test system: CCRF-CEM leukemia
HCC-2998 colon = test system: HCC-2998 colon
IGROV1 ovarian = test system: IGROV1 ovarian
MOLT-4 leukemia = test system: MOLT-4 leukemia
NCI-H23 lung = test system: NCI-H23 lung
NCI-H460 lung = test system: NCI-H460 lung
OVCAR-3 ovarian = test system: OVCAR-3 ovarian
SF-295 CNS = test system: SF-295 CNS
UACC-62 melanoma = test system: UACC-62 melanoma
HS 578T breast = test system: HS 578T breast

Compound	TGI (CCRF-CEM leukemia) [µM]	TGI (HCC-2998 colon) [µM]	TGI (IGROV1 ovarian) [µM]	TGI (MOLT-4 leukemia) [µM]	TGI (NCI-H23 lung) [µM]	TGI (NCI-H460 lung) [µM]	TGI (OVCAR-3 ovarian) [µM]	TGI (SF-295 CNS) [µM]	TGI (UACC-62 melanoma) [µM]	GI50 (NCI-H23 lung) [µM]	GI50 (UACC-62 melanoma) [µM]	TGI (HS 578T breast) [µM]	GI50 (HCC-2998 colon) [µM]	GI50 (HS 578T breast) [µM]	GI50 (IGROV1 ovarian) [µM]	GI50 (MOLT-4 leukemia) [µM]	GI50 (NCI-H460 lung) [µM]	GI50 (OVCAR-3 ovarian) [µM]	GI50 (SF-295 CNS) [µM]
CC(C)C1CC(O)O[C@@H]([C@@H](C)[C@H]2CC(=O)[C@@H]3[C@@H]4[C@@H](O)[C@H](O)[C@H]5[C@@H](O)[C@H](O)CC[C@]5(C)[C@H]4CC[C@]23C)C1 (some centres not stated)	> 100	> 100	> 100	> 100	> 100	> 100	> 100	> 100	> 100	–	–	–	–	–	–	–	–	–	–
CCCCCCCCCc1cc(=O)c2ccc(O)cc2o1	55.2	–	> 100	> 100	> 100	> 100	> 100	> 100	> 100	–	–	–	–	–	–	–	–	–	–
O=C1C2=C(c3ccccc31)C(c1ccccc1)NC(=S)N2 (configuration not stated)	> 100	> 100	> 100	> 100	> 100	> 100	> 100	> 100	> 100	–	–	–	–	–	–	–	–	–	–
N#C/C(=C\c1cccc(O)c1)C(N)=O	> 100	> 100	> 100	> 100	> 100	> 100	> 100	> 100	> 100	–	–	–	–	–	–	–	–	–	–
CC(C)CC1=[N+]=C(NC#N)N=C(CCC(=O)Nc2ccccc2[N+](=O)[O-])C1	> 100	> 100	> 100	> 100	> 100	> 100	> 100	> 100	> 100	–	–	–	–	–	–	–	–	–	–
CCCCCCCCCCCC[n+]1ccc(CCCCCCCCC)cc1	–	–	–	–	1.79	–	–	–	1.73	0.39	0.465	–	–	–	–	–	–	–	–
CCCCn1cnc2c(SC)ncnc21	–	> 100	> 100	> 100	> 100	> 100	> 100	> 100	> 100	–	–	> 100	–	–	–	–	–	–	–
COc1nc2nccc-2c2occn12	–	> 100	> 100	> 100	> 100	> 100	> 100	> 100	> 100	–	–	–	–	–	–	–	–	–	–
NC(=O)N1N=C2c3ccccc3SC[C@H]2[C@@H]1c1ccccc1	70.7	> 100	68.4	77.4	> 100	40.8	35.1	80.4	–	–	–	–	–	–	–	–	–	–	–
COC(=O)C1C2C=CC(C2)N1[C@@H](C)c1ccccc1 (some centres not stated)	> 100	> 100	> 100	–	> 100	> 100	> 100	> 100	> 100	–	–	–	–	–	–	–	–	–	–
Fc1ccc2[nH]c3c(NCCCN4CCOCC4)ncnc3c2c1	–	> 100	> 100	> 100	> 100	> 100	> 100	> 100	40.4	51.4	17.5	> 100	61.4	41.9	49.1	50.7	38.5	> 100	61.2
O=C(CSC(=S)N1CCOCC1)Nc1nc2c(s1)CCCC2	> 100	61.2	> 100	> 100	> 100	> 100	> 100	> 100	–	–	–	–	–	–	–	–	–	–	–
